Test: Release test of matrix tablets, USP Type VII, 40% EtOH/water 0-4 hrs then water vs water only (Examples 9-11)
Type: physicochemical
Conditions: oxycodone HCl and hydromorphone HCl 30 mg tablets with vs without stearyl alcohol, FIGS. 12 and 13
Procedure: Ten grams each of formulations with and without stearyl alcohol were prepared via wet granulation technique. The amounts set forth in Tables 5 and 6 of oxycodone hydrochloride, lactose and Eudragit® RS PO were combined in an appropriate vessel and blended for 5 minutes. The powder mixture was granulated with water until a moist mass was produced. The wet mass was then passed through a 16-mesh size screen and was allowed to dry overnight at ambient conditions. In a small vessel, the required amount of stearyl alcohol (a stiffening agent) was melted over a water bath. Keeping the molten stearyl alcohol in the water bath, the desired amount of dried granules were added and mixed until the granules were sufficiently coated with the molten stearyl alcohol. The mixture was removed from the water bath and allowed to cool at ambient conditions before sizing through a 16-mesh screen. Talc and magnesium stearate were added to the coated granules and blended using a suitable blender. The granules were then compressed to 375 mg tablets using an appropriate tabletting machine, such as a Carver press. For granules that were not coated with stearyl alcohol, granules were compressed to 300 mg tablets.
The same manufacturing procedure as Example 7 was used, with the substitution of hydromorphone HCl instead of oxycodone HCl.
Samples for this test came from Examples 7 and 8. […]

CCCCCCCCCCCCCCCCCCO [Stearyl alcohol, stearyl alcohol]
Effect of the excipient on ethanol effect on opioid release functionality: suppressed ethanol effect on opioid functionality
